Reference: patent US9718823B2, “2, 6-Di-nitrogen-containing substituted purine derivative, and preparation method, pharmaceutical composition and use thereof” (Zhejiang Medicine Co., Ltd. Xinchang Pharmaceutical Factory, priority 2013, dated 2017)
pIC50: −log10 of the molar value. Where a name gives a salt, the structure may show the parent alone. Read-outs that look alike come from different tables or passages of the source.

Key:
[1] = target: T1, PDGFR β enzyme (Homo sapiens, UniProt P09619); assay: Inhibitory activity to PDGFR β enzyme, HTRF kinEASE TK kit; format: biochemical
T1 construct: purchased Invitrogen P3082
T1 sequence (P09619 33-1106): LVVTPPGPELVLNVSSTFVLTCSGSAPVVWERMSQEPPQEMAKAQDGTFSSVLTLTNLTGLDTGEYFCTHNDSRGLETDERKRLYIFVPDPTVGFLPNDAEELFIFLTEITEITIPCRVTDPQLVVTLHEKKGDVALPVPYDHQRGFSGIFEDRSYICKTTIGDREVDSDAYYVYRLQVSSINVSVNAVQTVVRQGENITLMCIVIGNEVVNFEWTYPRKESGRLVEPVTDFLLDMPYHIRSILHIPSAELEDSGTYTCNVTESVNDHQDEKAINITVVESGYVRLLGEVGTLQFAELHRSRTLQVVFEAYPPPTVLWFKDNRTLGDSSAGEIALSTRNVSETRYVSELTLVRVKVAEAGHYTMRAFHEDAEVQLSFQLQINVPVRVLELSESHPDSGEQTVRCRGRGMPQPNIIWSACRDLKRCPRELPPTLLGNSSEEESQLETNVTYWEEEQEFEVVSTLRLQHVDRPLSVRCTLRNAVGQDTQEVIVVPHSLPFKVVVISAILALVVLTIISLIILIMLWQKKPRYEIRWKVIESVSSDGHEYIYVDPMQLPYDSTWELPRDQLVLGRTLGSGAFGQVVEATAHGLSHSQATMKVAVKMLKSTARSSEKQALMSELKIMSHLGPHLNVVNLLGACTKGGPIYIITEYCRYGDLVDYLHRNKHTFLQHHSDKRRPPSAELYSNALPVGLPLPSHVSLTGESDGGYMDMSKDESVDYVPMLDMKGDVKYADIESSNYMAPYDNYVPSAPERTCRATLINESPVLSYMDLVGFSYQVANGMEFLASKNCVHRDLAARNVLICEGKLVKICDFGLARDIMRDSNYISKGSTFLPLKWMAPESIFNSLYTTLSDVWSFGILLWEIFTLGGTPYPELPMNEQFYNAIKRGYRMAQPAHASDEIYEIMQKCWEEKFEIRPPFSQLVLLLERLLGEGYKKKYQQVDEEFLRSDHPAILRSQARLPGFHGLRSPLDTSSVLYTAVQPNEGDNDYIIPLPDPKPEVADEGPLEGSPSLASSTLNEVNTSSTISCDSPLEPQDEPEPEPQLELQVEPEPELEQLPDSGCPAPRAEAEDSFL
Outline: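 Recombinant human PDGFRβ phosphorylating TK-substrate in kinase buffer containing MgCl2, MnCl2, DTT and SEB, with ATP. Phosphorylation detected by HTRF using TK-Ab-Cryptate and Sa-XL665.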

[2] = target: T2, PI3Kδ (Homo sapiens, UniProt O00329); assay: Inhibitory activity to PI3K δ, PI 3-Kinase (human) HTRF Assay kit; format: biochemical
T2 construct: purchased Millipore 14-604
T2 sequence (O00329 whole entry): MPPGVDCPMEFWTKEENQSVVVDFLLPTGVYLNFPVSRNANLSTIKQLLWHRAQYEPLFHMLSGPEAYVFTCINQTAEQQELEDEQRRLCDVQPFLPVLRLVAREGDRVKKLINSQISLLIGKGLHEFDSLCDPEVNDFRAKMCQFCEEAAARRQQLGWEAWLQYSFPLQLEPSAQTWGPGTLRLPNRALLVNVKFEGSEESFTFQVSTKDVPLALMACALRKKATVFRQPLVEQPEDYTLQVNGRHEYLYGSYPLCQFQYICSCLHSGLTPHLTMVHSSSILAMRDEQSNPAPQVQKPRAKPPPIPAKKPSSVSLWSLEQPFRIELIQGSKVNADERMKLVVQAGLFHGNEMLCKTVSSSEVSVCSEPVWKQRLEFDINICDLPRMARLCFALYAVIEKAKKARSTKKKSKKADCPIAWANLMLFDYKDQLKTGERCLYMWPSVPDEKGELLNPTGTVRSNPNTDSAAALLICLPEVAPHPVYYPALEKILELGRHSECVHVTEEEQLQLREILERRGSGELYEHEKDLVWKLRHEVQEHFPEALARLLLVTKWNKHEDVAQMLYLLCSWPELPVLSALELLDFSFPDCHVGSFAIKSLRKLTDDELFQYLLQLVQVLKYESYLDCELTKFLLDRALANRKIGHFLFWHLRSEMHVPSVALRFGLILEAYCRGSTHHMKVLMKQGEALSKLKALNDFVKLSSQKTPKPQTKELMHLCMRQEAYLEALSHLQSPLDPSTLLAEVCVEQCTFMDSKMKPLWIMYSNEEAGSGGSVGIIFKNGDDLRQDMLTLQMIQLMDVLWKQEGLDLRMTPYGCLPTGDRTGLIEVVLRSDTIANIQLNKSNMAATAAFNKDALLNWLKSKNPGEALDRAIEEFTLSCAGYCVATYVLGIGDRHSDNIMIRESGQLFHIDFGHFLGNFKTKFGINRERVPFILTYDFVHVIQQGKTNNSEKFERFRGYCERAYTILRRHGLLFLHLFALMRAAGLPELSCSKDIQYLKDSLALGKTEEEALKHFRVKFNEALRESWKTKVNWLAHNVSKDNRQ
T2 sequence (P27986 whole entry partner): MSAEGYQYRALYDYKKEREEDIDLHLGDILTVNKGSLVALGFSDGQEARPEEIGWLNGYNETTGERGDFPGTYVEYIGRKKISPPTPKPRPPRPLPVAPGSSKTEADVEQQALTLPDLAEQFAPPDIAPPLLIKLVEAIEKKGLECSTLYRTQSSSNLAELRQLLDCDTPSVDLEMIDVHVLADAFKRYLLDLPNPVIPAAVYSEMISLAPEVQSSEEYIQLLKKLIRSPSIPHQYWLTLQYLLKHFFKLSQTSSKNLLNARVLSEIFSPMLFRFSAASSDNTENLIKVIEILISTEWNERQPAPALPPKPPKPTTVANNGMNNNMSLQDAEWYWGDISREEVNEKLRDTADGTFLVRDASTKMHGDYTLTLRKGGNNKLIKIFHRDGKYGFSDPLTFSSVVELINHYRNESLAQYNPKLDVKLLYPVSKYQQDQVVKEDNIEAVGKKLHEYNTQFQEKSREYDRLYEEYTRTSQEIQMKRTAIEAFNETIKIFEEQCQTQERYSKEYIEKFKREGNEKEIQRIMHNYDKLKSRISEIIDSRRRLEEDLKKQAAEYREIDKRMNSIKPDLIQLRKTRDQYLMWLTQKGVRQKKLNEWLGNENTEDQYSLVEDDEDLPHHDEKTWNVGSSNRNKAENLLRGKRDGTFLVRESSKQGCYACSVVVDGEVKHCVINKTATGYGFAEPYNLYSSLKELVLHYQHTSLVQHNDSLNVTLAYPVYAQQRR
Outline: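 Inhibition of human PI3Kδ was assessed with the Millipore PI 3-Kinase (human) HTRF Assay kit. PI3Kδ was screened at 2 ng/well, diluted in 2×PIP2 operating fluid. Reactions were 20 μL and contained 100 μM ATP. Stop solution was Stop A and Stop B mixed 3:1. Detection solution was DM C, DM A and DM B mixed 18:1:1. Compounds were prepared from DMSO stocks, and percent inhibition was reported.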

[3] = system: BT474 human breast cancer cell strain; assay: Antitumor cell proliferation in vitro, CCK-8 detection kit, BT474; format: cell-based; conditions: Homo sapiens, BT-474, 72 h, BT-474 cells, 1st and 2nd test where printed
Experimental: (§1) The half inhibitory concentration IC50 of proliferation of three kinds of tumor cell strain (U87MG, PC-3, BT474) for 12 candidate compounds of the present invention is detected by CCK-8 detection kits.
BT474 human breast cancer cell strain (cell bank of Chinese Academy of Sciences) Reagents and materials:
(§2) The studied compounds are dissolved by DMSO to make the final concentration 10 mM.
(§3) • a) Collecting the cells in logarithmic phase, counting, and resuspending the cells with complete medium. • b) Adjusting the concentration of cells to a suitable concentration, inoculating in 96 well plates, each well is inoculated to 100 μl cell suspension.
(§4) c) incubating cells for 24 hours in a 5% CO2 incubator at temperature of 37° C., under the condition of 100% relative humidity.
(§5) a) The cells in logarithmic phase is collected, counted, resuspended with complete medium. The concentration of cells is adjusted to a suitable concentration (determined in accordance with the optimizable test results of cell density), and the cells is inoculated in 96 well plates, wherein each well is inoculated 100 μl cell suspension, Cells are incubated for 24 hours in 5% CO2 incubator at temperature of 37° C. under the condition of 100% relative humidity.
(§6) b) The test compounds are diluted to 500 μM with culture medium, then diluted in series eight times. […] as 25 μl/well. The final concentrations of the compounds are diluted from 100 μM to 0 μM, with 4 times dilution, and there are a total of 10 concentration points.
(§7) c) Cells are incubated for 72 hours in 5% CO2 incubator at temperature of 37° C. under the condition of 100% relative humidity.
(§8) d) The culture medium is aspirated and discarded, and complete medium containing 10% CCK-8 is incubated in a incubator at 37° C. for 2˜4 hours.
(§9) e) After shocking gently, the absorbance of the culture medium is measured at 450 nm wavelength on SpectraMax M5 Microplate Reader, with the absorbance at 650 nm as reference, to calculate the inhibition rate.

[4] = target: T3, PI3K α (Homo sapiens, UniProt P42336); assay: Inhibitory activity to PI3K α, PI 3-Kinase (human) HTRF Assay kit; format: biochemical; conditions: read-out: % Inhibition Rate to PI3K α
T3 construct: purchased Millipore 14-602
T3 sequence (P42336 whole entry): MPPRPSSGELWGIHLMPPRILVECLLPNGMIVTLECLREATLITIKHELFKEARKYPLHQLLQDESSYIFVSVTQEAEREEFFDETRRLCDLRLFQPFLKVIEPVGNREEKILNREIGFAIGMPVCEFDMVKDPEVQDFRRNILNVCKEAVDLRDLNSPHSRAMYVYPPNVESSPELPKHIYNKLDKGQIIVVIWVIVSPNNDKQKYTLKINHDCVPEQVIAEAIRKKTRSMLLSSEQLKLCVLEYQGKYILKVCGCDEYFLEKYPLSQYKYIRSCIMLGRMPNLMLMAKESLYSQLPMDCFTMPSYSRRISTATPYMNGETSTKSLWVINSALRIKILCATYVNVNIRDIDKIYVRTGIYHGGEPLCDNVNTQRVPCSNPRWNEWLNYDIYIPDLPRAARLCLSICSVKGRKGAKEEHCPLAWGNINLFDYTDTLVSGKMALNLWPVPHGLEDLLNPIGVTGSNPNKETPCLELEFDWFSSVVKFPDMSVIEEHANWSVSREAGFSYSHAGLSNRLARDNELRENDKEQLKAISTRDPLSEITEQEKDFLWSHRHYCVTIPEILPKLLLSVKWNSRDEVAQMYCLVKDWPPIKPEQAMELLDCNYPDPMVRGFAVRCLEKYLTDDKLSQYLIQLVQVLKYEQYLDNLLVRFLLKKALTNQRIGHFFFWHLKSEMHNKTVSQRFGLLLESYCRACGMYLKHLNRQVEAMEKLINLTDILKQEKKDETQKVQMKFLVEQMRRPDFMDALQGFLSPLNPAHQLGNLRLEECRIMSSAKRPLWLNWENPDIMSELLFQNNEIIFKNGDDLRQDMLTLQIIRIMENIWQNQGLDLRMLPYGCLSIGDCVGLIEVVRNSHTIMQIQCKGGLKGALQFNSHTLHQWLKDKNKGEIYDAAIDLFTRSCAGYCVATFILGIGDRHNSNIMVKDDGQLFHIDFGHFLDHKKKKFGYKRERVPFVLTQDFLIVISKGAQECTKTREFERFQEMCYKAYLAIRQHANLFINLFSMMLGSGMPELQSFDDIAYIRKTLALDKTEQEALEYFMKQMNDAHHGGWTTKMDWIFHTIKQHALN
T3 sequence (P27986 whole entry partner): as the sequence (P27986 whole entry partner) above
Outline: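 HTRF assay using human PI3Kα at 8 ng/well, 100 μM ATP and PIP2 (2× working stock 20 μM) in 20 μL reaction containing 1% DMSO. Screened at 10 μM and 1 μM for percent inhibition, with selected compounds then taken to IC50 determination.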

[5] = system: U87MG human glioblastoma Multiforme cell strain; assay: Antitumor cell proliferation in vitro, CCK-8 detection kit, U87MG; format: cell-based; conditions: U-87 MG, 72 h, U-87MG cells, 1st and 2nd test where printed
Experimental: as §1
U87MG human glioblastoma Multiforme cell strain (cell bank of Chinese Academy of Sciences)
as §2, §3, §4, §5, §6, §7, §8, §9

[6] = 10 μM (Table 7), read-out: Inhibition rate % to PI3Kδ

SMILES | Inhibition rate % (PDGFR β) ([1]; 1 μM, dihydrate di-methanesulfonate) [%] | inhibition at 10 µM ([1]; 10 μM, read-out: Inhibition rate % (PDGFR β)) [%] | Inhibition rate % to PI3Kδ ([2]; 1 μM (Table 7), dihydrate di-methanesulfonate, 1 µM) [%] | inhibition at 10 µM [2, 6] [%] | pIC50 [3] | inhibition at 1 µM [4] [%] | inhibition at 10 µM [4] [%] | pIC50 [5] | inhibition at 0.4 µM ([2]; 0.4 μM (Table 8), read-out: Inhibition rate % to PI3K delta) [%] | inhibition at 1 µM ([2]; 1 μM (Table 7), read-out: Inhibition rate % to PI3Kδ) [%] | inhibition at 10 µM ([2]; 10 μM (Table 8), read-out: Inhibition rate % to PI3K delta) [%] | inhibition at 2 µM ([2]; read-out: Inhibition rate % to PI3K delta) [%]
c1ccc(-c2ccnc3ccc(Nc4nc(NC5CC5)c5nc[nH]c5n4)cc23)cc1 [MED1007-91, N6-cyclopropyl-N2-(4-phenylquinoline-6-yl)-9H-purine-2,6-diammonium salt dihydrate di-methanesulfonate] | −10.96 | 13.8 | 96.32 | 115 | 6.28 | 97 | 124 | 5.09 |  |  |  | 
COC[C@H]1OC(=O)c2coc3c2[C@@]1(C)C1=C(C3=O)[C@@H]2CCC(=O)[C@@]2(C)C[C@H]1OC(C)=O [Wortmannin, reference compound] |  |  |  | 108 | 5.28 | 109 | 105 |  | 93.4 | 95.4 | 105 | 109
